In patent US8637511B2, “Aminopyrimidines useful as kinase inhibitors” (Vertex Pharmaceuticals Incorporated, priority 2005, dated 2014) one finds Ki and IC50 data, which are given here for six molecules.

Each structure is given as a SMILES string. Where “and” joins values, the source holds several entries; their conditions need not be identical. Identical values can stand only once. Like-named read-outs stand apart in the source and are kept apart here.

In one test the target is Aurora-1 (Aurora B) (Homo sapiens, UniProt Q96GD4). The experiment in a line: Aurora-1 (Aurora B) inhibition assay (radiometric). Format: biochemical. To be noted: read-out: Aurora B kinase Ki value. Summed up: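 Ki values come from non-linear regression of background-corrected initial-rate data. The enzyme was preincubated 10 min at 25° C with compound, then reacted 3 h with 800 μM (final) [γ-^33P]-ATP in HEPES pH 7.5/MgCl2/BSA/glycerol buffer. The reaction was stopped with phosphoric acid and substrate-bound ^33P counted on phosphocellulose.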

For a further test, the system named is Colo205 cells. The experiment in a line: Analysis of cell proliferation and viability. As to conditions: Homo sapiens, COLO 205, Colo205 cells, read-out: IC50 value. Format: cell-based.
For another test, the target named is T1, FLT-3 (Homo sapiens, UniProt P36888).
T1 sequence (P36888 27-993): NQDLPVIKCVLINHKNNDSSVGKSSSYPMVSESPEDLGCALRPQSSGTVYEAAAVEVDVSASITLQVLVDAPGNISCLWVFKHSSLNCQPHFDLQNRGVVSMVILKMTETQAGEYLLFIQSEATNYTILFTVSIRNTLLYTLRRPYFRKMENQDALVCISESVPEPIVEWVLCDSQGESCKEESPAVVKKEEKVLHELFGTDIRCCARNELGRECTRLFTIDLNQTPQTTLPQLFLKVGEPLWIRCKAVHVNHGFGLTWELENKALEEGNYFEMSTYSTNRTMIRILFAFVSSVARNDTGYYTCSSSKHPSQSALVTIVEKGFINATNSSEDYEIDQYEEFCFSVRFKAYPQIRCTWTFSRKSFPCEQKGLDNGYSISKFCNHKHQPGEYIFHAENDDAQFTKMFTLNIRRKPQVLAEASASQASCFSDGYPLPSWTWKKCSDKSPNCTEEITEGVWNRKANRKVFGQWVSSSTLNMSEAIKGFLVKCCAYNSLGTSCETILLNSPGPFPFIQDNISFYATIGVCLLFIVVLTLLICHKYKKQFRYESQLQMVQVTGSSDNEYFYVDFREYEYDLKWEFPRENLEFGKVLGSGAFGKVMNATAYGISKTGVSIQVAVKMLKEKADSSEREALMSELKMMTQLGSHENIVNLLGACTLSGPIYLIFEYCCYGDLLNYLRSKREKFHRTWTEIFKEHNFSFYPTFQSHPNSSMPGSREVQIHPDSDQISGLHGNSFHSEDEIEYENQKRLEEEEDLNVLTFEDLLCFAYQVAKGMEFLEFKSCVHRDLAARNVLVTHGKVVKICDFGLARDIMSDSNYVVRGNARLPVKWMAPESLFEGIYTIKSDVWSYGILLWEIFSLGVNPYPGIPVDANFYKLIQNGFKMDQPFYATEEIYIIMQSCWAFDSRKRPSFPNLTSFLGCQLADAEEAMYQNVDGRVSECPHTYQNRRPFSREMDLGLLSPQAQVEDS
The experiment in a line: FLT-3 inhibition assay, radiometric filter-binding. Format: biochemical.

Sequence of Aurora-1 (Aurora B) (Q96GD4 whole entry): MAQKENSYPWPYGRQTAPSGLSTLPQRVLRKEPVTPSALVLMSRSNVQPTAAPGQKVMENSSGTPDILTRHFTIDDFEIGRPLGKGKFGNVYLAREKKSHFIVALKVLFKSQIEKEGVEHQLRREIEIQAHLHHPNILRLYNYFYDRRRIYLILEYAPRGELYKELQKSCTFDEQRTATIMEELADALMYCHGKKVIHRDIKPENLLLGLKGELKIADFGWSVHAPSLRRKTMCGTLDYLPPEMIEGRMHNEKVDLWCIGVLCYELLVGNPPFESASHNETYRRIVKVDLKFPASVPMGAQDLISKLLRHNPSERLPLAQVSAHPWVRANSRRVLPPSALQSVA

On to `Cc1cc(Nc2cc(N3CC(N4CC[C@H](F)C4)C3)nc(Sc3ccc(NC(=O)CC(F)(F)F)cc3)n2)[nH]n1` [Compound 185], for which the values for the Ki on Aurora-1 (Aurora B) and at FLT-3 were not above 10 nM and 50 to 150 nM, respectively. For the same molecule, the IC50 (as a rule, the concentration needed to halve the response being measured) with Colo205 cells (incubated for 72 hours) is not above 30 nM.

In the case of `Cc1cc(Nc2cc(N3CCC3)nc(Sc3ccc(NC(=O)c4ccc(-c5ccccc5)cc4Cl)cc3)n2)[nH]n1` [Compound 83], the Ki (in general, a measure of affinity in units of concentration, obtained from inhibition or displacement) at Aurora-1 (Aurora B) was not above 10 nM; on FLT-3 (read-out: FLT-3 Ki value) it was 150 to 1000 nM. Moreover, the IC50 in the test on Colo205 cells (incubated for 72 hours) lay within 30 to 200 nM.

On to `CCC(=O)Nc1ccc(Sc2nc(Nc3cc(C)n[nH]3)cc(N3CC4(C3)OCC4(C)C)n2)cc1` [Compound 92], for which the figures for the Ki on Aurora-1 (Aurora B) and on FLT-3 (read-out: FLT-3 Ki value) were 10 to 50 nM and not above 50 nM, respectively. Moreover, in the test on Colo205 cells (incubated for 96 hours), the IC50 is not above 50 nM.

As for `Cc1cc(Nc2cc(N3CC(O)(C4CC4)C3)nc(Sc3cc(F)c4nc(C)ccc4c3)n2)[nH]n1` [Compound 172], the Ki is not above 10 nM on Aurora-1 (Aurora B) and 50 to 150 nM on FLT-3. The IC50 in the test with Colo205 cells (incubated for 72 hours) was not above 30 nM.

In the case of `Cc1cc(Nc2cc(N3CC(N4CCOCC4)C3)nc(Sc3ccc4nc(CC(F)(F)F)n(C)c4c3)n2)[nH]n1` [Compound 177], the Ki on Aurora-1 (Aurora B) was not above 10 nM; on FLT-3, 150 to 1000 nM. Further, in the test on Colo205 cells (incubated for 72 hours), the IC50 was in the range of 30 to 200 nM.

On to `Cc1cc(Nc2cc(N3CC(N4CCOCC4)C3)nc(Sc3ccc4c(c3)CN(CC(F)(F)F)C4=O)n2)[nH]n1` [Compound 173], for which the Ki on Aurora-1 (Aurora B) is 10 to 50 nM and < 25 nM; at FLT-3, not above 50 nM. The IC50 with Colo205 cells (incubated for 72 hours) was in the range of 30 to 200 nM.
